Measurements reported in patent publication US5719287A, “Intermediates for inhibitors of HIV protease and method of preparation thereof” (Eli Lilly and Company, priority 1995, dated 1998).

Biological target: T1, HIV-1 protease (Human immunodeficiency virus type 1 group M subtype B, UniProt P04585)
T1 construct: Purified HIV-1 protease was obtained as described below; made in house; host or cells: E. coli K12 L507/pHP10D (NRRL B-18560)
Assay: biochemical
Conditions: for IC50: read-out: Fluorescence Assay IC50 (converted)
Experimental: N^α -Biotin-[…]Ne-FITC)-OH
The purified peptide was labeled as follows with a fluorescent marker at the C-terminal end for use in the assay. N^α -Biotin-Gly-Ser-Gln-Asn-Tyr-Pro-lle-Val-Gly-Lys-OH (1.206 g, 0.936 mmoles) was dissolved in 100 mL of 0.1M sodium borate, pH 9.5 with stirring. Then, 3 g of fluorescein isothiocyanate (7.7 mmol) was dissolved in 15 mL dimethyl sulfoxide and the solution added to the reaction in 10 equal portions over the course of a two hour period. The reaction was allowed to proceed for a further one hour after the final addition had been made. The pH of the solution was adjusted to 3 with 5N HCl. A precipitate formed which was removed from the reaction by centrifugation.
Fluorescence HIV-1 Protease Inhibitor Assay Procedure.
To each well of a round bottom, 96-well plate is added 20 μl of the Enzyme Solution followed by 10 μl of the compound to be evaluated in 20% aqueous DMSO. Purified HIV-1 protease was obtained as described below. The solution is incubated for one hour at room temperature and then 20 μl of a solution of the substrate N^α -Biotin-[…]N^e -FITC)-OH, in MES-ALB buffer (1.5 μl/ml) is added to each well. The solutions are incubated for 16 hours at room temperature and thereafter to each well is added 150 μl of MES-ALB buffer.
To each well of a 96-well Pandex plate is added 25 μl of the Avidin Coated Beads Solution. Next, 25 μl of the diluted incubation solutions, described above, are added to each well of the Pandex plate. The solutions are mixed well and the plates are loaded into a Pandex® machine, washed, evacuated and read. Sample detection was performed by excitation at 485 nm and reading the resulting epifluorescence at 535 nm.
A culture of E. coli K12 L507/pHP10D was grown to mid-log phase at 32° C. in LB media containing 12.5 μg/ml tetracycline. The cultivation temperature was quickly elevated to 40° C. to induce gene expression, and the cells were allowed to grow for 2.5 hours at this temperature before the culture was quickly chilled on ice. The cells were centrifuged and the cell pellet was resuspended in 20 ml 50 mmol MES buffer (pH 6.0) containing 1 mmol EDTA, 1 mmol DTT, 1 mmol PMSF, and 10% glycerol (Buffer A). Cells were lysed by sonication using a Fischer Model 300 Dismembrator and a microtip probe. […] Enzymatic activity was measured by HPLC using the synthetic peptide SQNYPIV as described in Margolin et al., Biochem. Biophys. Res. Commun., 167, 554-560 (1990); the production of the pl peptide (SQNY) was measured.
Active fractions were pooled, made 1.2M in ammonium sulfate, and applied to a hexyl agarose column (2.0×18 cm) equilibrated in Buffer A containing 1.2M ammonium sulfate. The sample, in 125 ml (1.85 mg/ml), was loaded at a flow rate of 1 ml/min at 4° C. […] The column was then washed isocratically in Buffer A for 120 min. Active fractions were pooled, concentrated to 10 ml using an Amicon stirred cell with a YM-10 membrane, and applied at 1 ml/min to a MonoS cation exchange column (1.0×10 cm) equilibrated in Buffer A. After washing isocratically for 30 min, protease was eluted using a linear gradient of 0-0.45M NaCl in Buffer A over 40 min followed by an isocratic wash with Buffer A containing 0.45M NaCl over 30 min. Chromatography was performed at 25° C.
Pooled active fractions were concentrated to 200 ul using an Amicon stirred cell and a YM-10 membrane, and the protease was then applied to a Superose 6 size exclusion column equilibrated in Buffer A containing 0.1M NaCl. The column was washed isocratically in this buffer at a flow rate of 0.5 ml/min.

| Structure (SMILES) | IC50 | Fluorescence Assay IC50 (purified HIV-1 protease, MES-ALB buffer pH 5.5, 1 h preincubation, 16 h with substrate, room temperature, IC50 values for Examples 2-70 are standardized relative to Ex 1) |
| --- | --- | --- |
| CC(C)(C)NC(=O)c1cc2ccccc2cc1C[C@@H](O)[C@H](Cc1ccccc1)NC(=O)[C@H](CC(N)=O)NC(=O)c1ccc2ccccc2n1 (relative stereo) [Example 5, 1S-(1R*. 4R*, 5S*)]-N-(1-(2-amino-2-oxoethyl)-2-oxo-3-aza-4-phenylmethyl-5-hydroxy-6-(3-(1-t-butylamino-1-oxomethyl)-2-naphthyl)hexyl)-2-quinolinyl carboxamide] | 12.7 nM |  |
| CC(C)(C)NC(=O)c1ccccc1C[C@@H](O)[C@H](Cc1ccccc1)NC(=O)[C@H](CC(N)=O)NC(=O)OCc1ccccc1 (relative stereo) [Example 11, [2R-(2R*, 3S*, 6S*)]-N-t-butyl-2-(2-hydroxy-3-phenylmethyl-4-aza-5-oxo-6-(2-amino-2-oxomethyl)-6-phenylmethoxycarbonyl)hexyl)benzamide] |  | 0.01 µg/mL |
| CC(C)(C)NC(=O)c1ccccc1C[C@@H](O)[C@H](Cc1ccccc1)NC(=O)[C@H](CC(N)=O)NC(=O)c1ccc2ccccc2[n+]1[O-] [Example 7, [1S-(1R*, 4R*, 5S*)]-N-(1-(2-amino-2-oxoethyl)-2-oxo-3-aza-4-phenylmethyl-5-hydroxy-6-(2-(1-t-butylamino-1-oxomethyl)phenyl)hexyl)-1-oxo-2-quinolinyl carboxamide] | 28.8 nM |  |
| CC(C)(C)NC(=O)c1ccccc1C[C@@H](O)[C@H](Cc1ccc(OCc2ccccc2)cc1)NC(=O)[C@H](CC(N)=O)NC(=O)c1ccc2ccccc2n1 [Example 9, [1S-(1R*, 4R*, 5S*)]-N-(1-(2-amino-2-oxoethyl)-2-oxo-3-aza-4-(4-phenylmethyloxy)phenylmethyl-5-hydroxy-6-(2-(1-t-butylamino-1-oxomethyl)phenyl)hexyl)-2-quinolinyl carboxamide] | 12 nM |  |
| CC(C)(C)NC(=O)c1ccccc1C[C@@H](O)[C@H](Cc1ccc(O)cc1)NC(=O)[C@H](CC(N)=O)NC(=O)c1ccc2ccccc2n1 [Example 10, [1S-(1R*, 4R*. 5S*) ]-N-(1-(2-amino-2-oxoethyl)-2-oxo-3-aza-4-(4-hydroxyphenyl)methyl-5-hydroxy-6-(2-(1-t-butylamino-1-oxomethyl)phenyl)hexyl)-2-quinolinyl carboxamide] | 94.3 nM |  |
| CC(C)(C)NC(=O)c1ccccc1C[C@@H](O)[C@H](Cc1ccccc1)NC(=O)[C@H](CO)NC(=O)OCc1ccccc1 [Example 12, [2R-(2R*, 3S*, 6S*)]-N-t-butyl-2-(2-hydroxy-3-phenylmethyl-4-aza-5-oxo-6-hydroxymethyl-6-(N-phenylmethoxycarbonyl-amino)hexyl)benzamide] | 890 nM |  |
| CC(C)(C)C(=O)Nc1ccccc1C[C@@H](O)[C@H](Cc1ccccc1)NC(=O)[C@H](CC(N)=O)NC(=O)c1ccc2ccccc2n1 [Example 18, [1S-(1R*, 4R*, 5S*)]-N-(1-(2-amino-2-oxoethyl)-2-oxo-3-aza-4-phenylmethyl-5-hydroxy-6-(2-(2,2-dimethyl-1-oxopropylamino)phenyl)hexyl)-2-quinolinyl carboxamide] | 50.8 nM |  |
| CC(C)(C)NC(=O)c1ccccc1C[C@@H](O)[C@H](Cc1ccccc1)NC(=O)[C@H](CC(N)=O)NC(=O)c1ccc2ccccc2c1 [Example 19, [1S-(1R*, 4R*, 5S*)]-N-(1-(2-amino-2-oxoethyl)-2-oxo-3-aza-4-phenylmethyl-5-hydroxy-6-(2-(1-t-butylamino-1-oxomethyl)phenyl)hexyl)-2-naphthyl carboxamide] | 3.45 nM |  |

The next lines start with results.

| IC50 | Structure (SMILES) | Fluorescence Assay IC50 (purified HIV-1 protease, MES-ALB buffer pH 5.5, 1 h preincubation, 16 h with substrate, room temperature, IC50 values for Examples 2-70 are standardized relative to Ex 1) |
| --- | --- | --- |
| 1060 nM | CC(C)(C)NC(=O)c1ccccc1C[C@@H](O)[C@H](Cc1ccccc1)NC(=O)[C@H](CC(N)=O)NC(=O)C1Cc2ccccc2CN1 (single isomer, unassigned) [Example 36, [1S-(1R*, 4R*, 5S*)]-N-(1-(2-amino-2-oxoethyl)-2-oxo-3-aza-4-phenylmethyl-5-hydroxy-6-(2-(1-t-butylamino-1-oxomethyl)phenyl)hexyl)-3-(1,2,3,4-tetrahydroisoquinolinyl) carboxamide] |  |
| 34.2 nM | CC(C)(C)NC(=O)c1ccccc1C[C@@H](O)[C@H](Cc1ccccc1)NC(=O)[C@H](CC(N)=O)NC(=O)C1Cc2ccccc2CN1 (single isomer, unassigned) [Example 37, [1S-(1R*, 4R*, 5S*)]-N-(1-(2-amino-2-oxoethyl)-2-oxo-3-aza-4-phenylmethyl-5-hydroxy-6-(2-(1-t-butylamino-1-oxomethyl)phenyl)hexyl)-3-(1,2,3,4-tetrahydroisoquinolinyl) carboxamide] |  |
| 1.15 nM | CC(C)(C)NC(=O)c1ccccc1C[C@@H](O)[C@H](Cc1ccccc1)NC(=O)[C@H](CC(N)=O)NC(=O)c1cnc2ccccc2n1 [Example 20, [1S-(1R*, 4R*, 5S*)]-N-(1-(2-amino-2-oxoethyl)-2-oxo-3-aza-4-phenylmethyl-5-hydroxy-6-(2-(1-t-butylamino-1-oxomethyl)phenyl)hexyl)-2-quinoxalinyl carboxamide] |  |
| 4.18 nM | CC(C)(C)NC(=O)c1ccccc1C[C@@H](O)[C@H](Cc1ccccc1)NC(=O)[C@H](CC(N)=O)NC(=O)c1cc2ccccc2[nH]1 [Example 21, [1S-(1R*, 4R*. 5S*)]-N-(1-(2-amino-2-oxoethyl)-2-oxo-3-aza-4-phenylmethyl-5-hydroxy-6-(2-(1-t-butylamino-1-oxomethyl)phenyl)hexyl)-2-indolyl carboxamine] |  |
| 10.7 nM | CC(C)(C)NC(=O)c1ccccc1C[C@@H](O)[C@H](Cc1ccccc1)NC(=O)[C@H](CC(N)=O)NC(=O)c1cc2ccccc2s1 [Example 22, [1S-(1R*, 4R*, 5S*)]-N-(1-(2-amino-2-oxoethyl)-2-oxo-3-aza-4-phenylmethyl-5-hydroxy-6-(2-(1-t-butylamino-1-oxomethyl)phenyl)hexyl)-2-benzo[b]thienyl carboxamide] |  |
| 0.641 nM | Cc1ccc2ccc(C(=O)N[C@@H](CC(N)=O)C(=O)N[C@@H](Cc3ccccc3)[C@H](O)Cc3ccccc3C(=O)NC(C)(C)C)nc2c1 [Example 23, [1S-(1R*, 4R*, 5S*)]-N-(1-(2-amino-2-oxoethyl)-2-oxo-3-aza-4-phenylmethyl-5-hydroxy-6-(2-(1-t-butylamino-1-oxomethyl)phenyl)hexyl)-7-methylquinolin-2-yl carboxamide] |  |
| 0.481 nM | Cc1cccc2ccc(C(=O)N[C@@H](CC(N)=O)C(=O)N[C@@H](Cc3ccccc3)[C@H](O)Cc3ccccc3C(=O)NC(C)(C)C)nc12 [Example 24, [1S-(1R*, 4R*, 5S*)]-N-(1-(2-amino-2-oxoethyl)-2-oxo-3-aza-4-phenylmethyl-5-hydroxy-6-(2-(1-t-butylamino-1-oxomethyl)phenyl)hexyl)-8-methylquinolin-2-yl carboxamide] |  |
| 1.12 nM | Cc1cc(C(=O)N[C@@H](CC(N)=O)C(=O)N[C@@H](Cc2ccccc2)[C@H](O)Cc2ccccc2C(=O)NC(C)(C)C)nc2ccccc12 [Example 26, [1S-(1R*, 4R*, 5S*)]-N-(1-(2-amino-2-oxoethyl)-2-oxo-3-aza-4-phenylmethyl-5-hydroxy-6-(2-(1-t-butylamino-1-oxomethyl)phenyl)hexyl)-4-methylquinolin-2-yl carboxamide] |  |
| 8.18 nM | Cc1cc2ccccc2nc1C(=O)N[C@@H](CC(N)=O)C(=O)N[C@@H](Cc1ccccc1)[C@H](O)Cc1ccccc1C(=O)NC(C)(C)C [Example 27, [1S-(1R*, 4R*. 5S*) ]-N-(1-(2-amino-2-oxoethyl)-2-oxo-3-aza-4-phenylmethyl-5-hydroxy-6-(2-(1-t-butylamino-1-oxomethyl)phenyl)hexyl)-3-methylquinolin-2-yl carboxamide] |  |
